Laboratory results reported in US12275684B2, “Methods for making and using endoxifen” (Atossa Therapeutics, Inc., priority 2017, dated 2025).

Experiment: Accelerated stability study of (Z)-endoxifen free base solution in ethanol (E/Z by HPLC)
Assay type: physicochemical
Protocol: HPLC-UV analyses of the samples was carried out using a Luna phenyl-hexyl column (4.6 mm×150 mm×3 μm of particle size). The column temperature was 40° C. and sample compartment temperature was maintained at ambient temperature. Samples were prepared by dissolving solids and filtrates at 0.2 mg/ml of sample in methanol as sample buffer. Samples were then injected into the column in an injection volume of 20 μl. Likewise, mildly acidic (pH 4.3) ammonium formate buffer/methanol in the mobile phase with gradient elution was used. Mobile phase system consisting of: Mobile Phase A (MPA) buffer was 10 mM HCOONH4 with 0.03% HCOOH buffer in water, and Mobile Phase B (MBP) buffer was 10 mM HCOONH4 in methanol with a gradient program used.
The run time was 30 m, the flow rate was 1.0 mL/m, and the delay time was 5 m. Samples were detected by UV detection at 243 nm. Retention times were typically from 12.95 to 13.20 m for (E)-endoxifen and from 14.0 to 14.33 m for (Z)-endoxifen. Relative Retention Time (RRT) for (E)-endoxifen was […] and 1.0 for (Z)-endoxifen.
The stability of (Z)-endoxifen free base Sample 1 of Table 11 was studied when stored at various temperatures in solid form and in ethanol (EtOH) solution. The (E)-endoxifen and (Z)-endoxifen levels were measured on days 2, 7 and 10 following placement of 1 g aliquots of purified (Z)-endoxifen free base in 180 mL HDPE bottles under dry N2, which were then placed in double LDPE bags. The double bagged HDPE bottles containing each sample were individually packed in aluminum foil bags and thermally sealed until they were opened for testing the stability of the samples. The (E)- and (Z)-isomers of endoxifen were monitored by HPLC as disclosed above. The purity of (Z)-endoxifen in solid form remained at about 97% at 40° C., 60° C., and 80° C. up to 10 days.

[1] = 2.8 mg/mL in 70% EtOH, 25° C., 2 days
[2] = 2.8 mg/mL in 70% EtOH, 25° C., 7 days
[3] = 2.8 mg/mL in 70% EtOH, 25° C., 10 days
[4] = 2.8 mg/mL in 70% EtOH, 40° C., 2 days
[5] = 2.8 mg/mL in 70% EtOH, 40° C., 7 days
[6] = 2.8 mg/mL in 70% EtOH, 40° C., 10 days
[7] = 10 mg/mL in 99.5% EtOH, 25° C., 2 days
[8] = 10 mg/mL in 99.5% EtOH, 25° C., 7 days
[9] = 10 mg/mL in 99.5% EtOH, 25° C., 10 days
[10] = 10 mg/mL in 99.5% EtOH, 40° C., 2 days
[11] = 10 mg/mL in 99.5% EtOH, 40° C., 7 days
[12] = 10 mg/mL in 99.5% EtOH, 40° C., 10 days

CC/C(=C(\c1ccc(O)cc1)c1ccc(OCCNC)cc1)c1ccccc1 [(Z)-Endoxifen, (Z)-4-(1-(4-(2-(methylamino)ethoxy)phenyl)-2-phenylbut-1-enyl) phenol]
(E)-endoxifen content [1]: (2.09%/
(Z)-endoxifen content [1]: 96.59%)
E/Z ratio [1]: 1/46
Total Impurity [1]: 1.33%
(E)-endoxifen content [2]: (5.62%
(Z)-endoxifen content [2]: 92.67%)
E/Z ratio [2]: 1/17
Total Impurity [2]: 1.71%
(E)-endoxifen content [3]: (10.46%/
(Z)-endoxifen content [3]: 88.20%)
Total Impurity [3]: 1.34%
(E)-endoxifen content [4]: (4.43%/
(Z)-endoxifen content [4]: 94.23%)
E/Z ratio [4]: 1/21
Total Impurity [4]: 1.34%
(E)-endoxifen content [5]: (15.23%/
(Z)-endoxifen content [5]: 83.04%)
Total Impurity [5]: 1.73%
(E)-endoxifen content [6]: (22.59%/
(Z)-endoxifen content [6]: 76.09%)
Total Impurity [6]: 1.32%
(E)-endoxifen content [7]: (1.37%/
(Z)-endoxifen content [7]: 97.33%)
E/Z ratio [7]: 1/71
Total Impurity [7]: 1.3%
(E)-endoxifen content [8]: (1.91%/
(Z)-endoxifen content [8]: 96.37%)
E/Z ratio [8]: 1/50
Total Impurity [8]: 1.72%
(E)-endoxifen content [9]: (2.58%/
(Z)-endoxifen content [9]: 96.03%)
E/Z ratio [9]: 1/37
Total Impurity [9]: 1.39%
(E)-endoxifen content [10]: (1.70%/
(Z)-endoxifen content [10]: 96.98%)
E/Z ratio [10]: 1/57
Total Impurity [10]: 1.32%
(E)-endoxifen content [11]: (2.82%/
(Z)-endoxifen content [11]: 95.45%)
E/Z ratio [11]: 1/34
Total Impurity [11]: 1/73%
(E)-endoxifen content [12]: (3.56%/
(Z)-endoxifen content [12]: 95.10%)
E/Z ratio [12]: 1/27
Total Impurity [12]: 1.34%
stability in alcoholic solutions (ethanol, elevated temperatures (40° C.), higher concentrations, over 10 days): surprisingly stable
